This test concerns recombinant NL-Rluc virus (NL4-3 with Renilla Luciferase gene) in MT-2 cells. The test is described as follows: Inhibition of HIV replication (NL-Rluc luciferase reporter virus, MT-2 cells). In kind it is cell-based, human immunodeficiency virus (HIV). The following applies: NL43, 120 h. A general note: In a reporter assay the amount or activity of a reporter protein is the signal.

This is an account of results in US8633200B2, “Inhibitors of human immunodeficiency virus replication” (priority 2010, dated 2014).

Where a name gives a salt, the structure may show the parent alone. Read-outs that look alike come from different tables or passages of the source.

With `Cc1nc2cc(-c3cccc(OCc4cccc(Cl)c4)c3)nn2c(-c2cc(F)c3c(c2C)CCCO3)c1C(OC(C)(C)C)C(=O)O` (centres unmarked) [Example 104, 2-tert-Butoxy-2-(2-(3-(3-chlorobenzyloxy)phenyl)-7-(8-fluoro-5-methylchroman-6-yl)-5-methylpyrazolo[1,5-a]pyrimidin-6-yl)acetic acid, TFA salt], the EC50 (read-out: Activity) is < 0.1 µM. On to `Cc1ccc(-c2cc3nc(C)c(C(OC(C)(C)C)C(=O)O)c(-c4cc(F)c5c(c4C)CCCO5)n3n2)cc1OCc1ccccc1` (centres unmarked) [Example 105, 2-(2-(3-(Benzyloxy)-4-methylphenyl)-7-(8-fluoro-5-methylchroman-6-yl)-5-methylpyrazolo[1,5-a]pyrimidin-6-yl)-2-tert-butoxyacetic acid], for which the EC50 (read-out: Activity) is < 0.1 µM.

On to `Cc1nc2cc(-c3cccc(OCc4ccc(Cl)cc4)c3)nn2c(-c2cc(F)c3c(c2C)CCCO3)c1C(OC(C)(C)C)C(=O)O` (centres unmarked) [Example 106, 2-tert-Butoxy-2-(2-(3-(4-chlorobenzyloxy)phenyl)-7-(8-fluoro-5-methylchroman-6-yl)-5-methylpyrazolo[1,5-a]pyrimidin-6-yl)acetic acid, TFA salt], for which the EC50 by setting is: (read-out: Activity) < 0.1 µM; (read-out: EC50 μM) 0.04 µM. On to `Cc1nc2cc(-c3ccnc(OCc4ccccc4)c3)nn2c(-c2cc(F)c3c(c2C)CCCO3)c1C(OC(C)(C)C)C(=O)O` (centres unmarked) [Example 107, 2-(2-(2-(Benzyloxy)pyridin-4-yl)-7-(8-fluoro-5-methylchroman-6-yl)-5-methylpyrazolo[1,5-a]pyrimidin-6-yl)-2-tert-butoxyacetic acid, TFA salt], for which the EC50 is, setting by setting: (read-out: Activity) < 0.1 µM; (read-out: EC50 μM) 0.008 µM.

With `Cc1nc2cc(-c3ccc(OCc4ccccc4)nc3)nn2c(-c2cc(F)c3c(c2C)CCCO3)c1C(OC(C)(C)C)C(=O)O` (centres unmarked) [Example 108, 2-(2-(6-(Benzyloxy)pyridin-3-yl)-7-(8-fluoro-5-methylchroman-6-yl)-5-methylpyrazolo[1,5-a]pyrimidin-6-yl)-2-tert-butoxyacetic acid, TFA salt], the EC50 (read-out: Activity) was < 0.1 µM. For `Cc1nc2cc(-c3ccnc(F)c3)nn2c(-c2cc(F)c3c(c2C)CCCO3)c1C(OC(C)(C)C)C(=O)O` (centres unmarked) [Example 109, 2-tert-Butoxy-2-(7-(8-fluoro-5-methylchroman-6-yl)-2-(2-fluoropyridin-4-yl)-5-methylpyrazolo[1,5-a]pyrimidin-6-yl)acetic acid, TFA salt], the EC50 reads like this: (read-out: Activity) 0.1 to 1 µM; (read-out: EC50 μM) 0.27 µM.

`Cc1nc2cc(-c3cccc(C(=O)Nc4ccccc4)c3)nn2c(-c2cc(F)c3c(c2C)CCCO3)c1C(OC(C)(C)C)C(=O)O` (centres unmarked) [Example 110, 2-tert-Butoxy-2-(7-(8-fluoro-5-methylchroman-6-yl)-5-methyl-2-(3-(phenylcarbamoyl)phenyl)pyrazolo[1,5-a]pyrimidin-6-yl)acetic acid, TFA salt]: the EC50 (read-out: Activity) fell in the range of 0.1 to 1 µM.

As to `Cc1nc2cc(-c3cccc(C(=O)NCc4ccccc4)c3)nn2c(-c2cc(F)c3c(c2C)CCCO3)c1C(OC(C)(C)C)C(=O)O` (centres unmarked) [Example 111, 2-(2-(3-(Benzylcarbamoyl)phenyl)-7-(8-fluoro-5-methylchroman-6-yl)-5-methylpyrazolo[1,5-a]pyrimidin-6-yl)-2-tert-butoxyacetic acid, TFA salt], the EC50 (read-out: Activity) is 0.1 to 1 µM.

Take `Cc1nc2cc(-c3ccc(Oc4ccccc4)cc3)nn2c(-c2ccc3c(c2)CCCO3)c1C(OC(C)(C)C)C(=O)O` (centres unmarked) [Example 112, 2-tert-Butoxy-2-(7-(chroman-6-yl)-5-methyl-2-(4-phenoxyphenyl)pyrazolo[1,5-a]pyrimidin-6-yl)acetic acid, TFA salt]: the EC50 (read-out: Activity) fell in the range of 0.1 to 1 µM. Turning to `Cc1nc2cc(-c3ccc4c(c3)CCCO4)nn2c(-c2ccc3c(c2)CCCO3)c1C(OC(C)(C)C)C(=O)O` (centres unmarked) [Example 113, 2-tert-Butoxy-2-(2,7-di(chroman-6-yl)-5-methylpyrazolo[1,5-a]pyrimidin-6-yl)acetic acid, TFA salt], the EC50 (read-out: Activity) lay in the range of 0.1 to 1 µM and the EC50 (read-out: EC50 μM) came to 0.11 µM.
